Results taken from patent US20040186179A1, “Pharmaceutical composition” (priority 2000, published 2004).
Where two headings read alike, the source gives them in different places. Marks after values point to notes of the source that are not given here. Each block holds one molecule with its values, some of them ahead of it.

Experiments:
[1] = test system: patients with knee or hip primary osteoarthritis; assay: Four week placebo-controlled trial, most pain over the previous 24 hours on a 100 mm VAS; format: in vivo, human
Procedure: (§1) A four week multicenter randomized double-blind double-dummy placebo-controlled parallel group trial (the study) of four dosing regimens of 5-methyl-2-(2′-chloro-6′-fluoroanilino)phenylacetic acid in patients with knee or hip primary osteoarthritis is performed, using diclofenac as a comparator. Patients are male and female, from 18 to 75 years of age, have a clinical and radiological diagnosis of knee or hip osteoarthritis as defined by the American College of Rheumatology criteria, and have a pain intensity of at least 40 mm (Visual Analog Scale) in the affected joint prior to screening for inclusion in the study. 584 patients are randomized to receive either 50, 100, or 200 mg 5-methyl-2-(2′-chloro-6′-fluoroanilino)phenylacetic acid or 75 mg diclofenac administered orally twice a day, or 400 mg 5-methyl-2-(2′-chloro-6′-fluoroanilino)phenylacetic acid administered orally once a day, or placebo. Drug and placebo are administered in capsules. The comparator, diclofenac, is an extended release tablet that is over-encapsulated to match the placebo. The treatment duration is for 28 days.
(§2) Pharmacokinetics are performed on 52 of the patients who receive 5-methyl-2-(2′-chloro-6′-fluoroanilino)phenylacetic acid. Blood samples are taken at 0, 0.5, 1, 2, 3, 4 and 6 hours following administration of 5-methyl-2-(2′-chloro-6′-fluoroanilino)phenylacetic acid. Plasma concentrations of 5-methyl-2-(2′-chloro-6′-fluoroanilino)phenylacetic acid are measured by an LC/MS assay with a limit of quantitation of 10 ng/ml. Cmax and tmax AUC (0-6) are determined for day 1 and Cmax^ss and tmax^ss AUCτ^ss, Cmin^ss, Cav^ss, peak-trough fluctuation (PTF) and Cl/F at steady state are determined on day 28. The primary efficacy parameter is the most pain experienced over the previous 24 hours on a 100 mm VAS.

[2] = Pharmacokinetics in osteoarthritis patients, plasma concentrations by LC/MS; format: in vivo, human; conditions: for Tmax / Cmax / AUC(0-t) / AUC: plasma; for AUC(0-t): read-out: AUC0-6
Procedure: as §1, §2

[3] = both sexes, human, po, 50 mg, 50 mg bid oral, day 0
[4] = both sexes, human, po, 50 mg, 50 mg bid oral, day 28
[5] = both sexes, human, po, 100 mg, 100 mg bid oral, day 0
[6] = both sexes, human, po, 100 mg, 100 mg bid oral, day 28
[7] = both sexes, human, po, 200 mg, 200 mg bid oral, day 0
[8] = both sexes, human, po, 200 mg, 200 mg bid oral, day 28
[9] = both sexes, human, po, 400 mg, 400 mg qd oral, day 0
[10] = both sexes, human, po, 400 mg, 400 mg qd oral, day 28

- CLss/F ([2]; 50 mg bid oral, day 28): 15.0 ± 4.7 L/h
- CLss/F ([2]; 100 mg bid oral, day 28): 13.3 ± 3.3 L/h
- CLss/F ([2]; 200 mg bid oral, day 28): 15.0 ± 3.5 L/h
- CLss/F ([2]; 400 mg qd oral, day 28): 17.4 ± 6.1 L/h
- Dose dependence of AUC and Cmax ([2]; 50, 100, 200 mg twice daily and 400 mg once daily, day 28): dose proportional increase
- Tmax ([2]; both sexes, human, oral, all dose groups, read-out: tmax, typical): 2 to 3 h
- Cmax [2, 3]: 914 ± 340 ng/mL
- AUC(0-t) [2, 3]: 2680 ± 960 ng·h/mL
- Tmax ([2]; both sexes, human, po, 50 mg, 50 mg bid oral, day 0, read-out: tmax): 2 h
- Cmax [2, 4]: 1010 ± 590 ng/mL
- AUC(0-t) [2, 4]: 2810 ± 1210 ng·h/mL
- Tmax ([2]; both sexes, human, po, 50 mg, 50 mg bid oral, day 28, read-out: tmax): 2 h
- Cmax [2, 5]: 1790 ± 600 ng/mL
- AUC(0-t) [2, 5]: 5220 ± 1810 ng·h/mL
- Tmax ([2]; both sexes, human, po, 100 mg, 100 mg bid oral, day 0, read-out: tmax): 2.5 h
- Cmax [2, 6]: 1860 ± 630 ng/mL
- AUC(0-t) [2, 6]: 6010 ± 1890 ng·h/mL
- Tmax ([2]; both sexes, human, po, 100 mg, 100 mg bid oral, day 28, read-out: tmax): 2 h
- Cmax [2, 7]: 4210 ± 2160 ng/mL
- AUC(0-t) [2, 7]: 11700 ± 3570 ng·h/mL
- Tmax ([2]; both sexes, human, po, 200 mg, 200 mg bid oral, day 0, read-out: tmax): 3 h
- Cmax [2, 8]: 4380 ± 3100 ng/mL
- AUC(0-t) [2, 8]: 11100 ± 3020 ng·h/mL
- Tmax ([2]; both sexes, human, po, 200 mg, 200 mg bid oral, day 28, read-out: tmax): 2 h
- Cmax [2, 9]: 5540 ± 1800 ng/mL
- AUC(0-t) [2, 9]: 17200 ± 5280 ng·h/mL
- Tmax ([2]; both sexes, human, po, 400 mg, 400 mg qd oral, day 0, read-out: tmax): 3 h
- Cmax [2, 10]: 4790 ± 2640 ng/mL
- AUC(0-t) [2, 10]: 15300 ± 5590 ng·h/mL
- Tmax ([2]; both sexes, human, po, 400 mg, 400 mg qd oral, day 28, read-out: tmax): 2 h
- AUC ([2]; both sexes, human, 50 mg bid oral, day 28): 3660 ± 1290 ng·h/mL
- AUC ([2]; both sexes, human, 100 mg bid oral, day 28): 8100 ± 2730 ng·h/mL
- AUC ([2]; both sexes, human, 200 mg bid oral, day 28): 14000 ± 3220 ng·h/mL
- AUC ([2]; both sexes, human, 400 mg qd oral, day 28): 25800 ± 9200 ng·h/mL
- half-life ([2]; both sexes, human, blood plasma, oral administration): 180 to 360 min
Compound: Cc1ccc(Nc2c(F)cccc2Cl)c(CC(=O)O)c1 [5-methyl-2-(2′-chloro-6′-fluoroanilino)phenylacetic acid]
- VAS pain, change from baseline ([1]; 50 mg bid, day 7, 100 mm VAS): −19.5 (19.1)* mm
- VAS pain, change from baseline ([1]; 50 mg bid, day 14, 100 mm VAS): −22.6 (20.9)* mm
- VAS pain, change from baseline ([1]; 50 mg bid, day 28, 100 mm VAS): −28.6 mm
- VAS pain, change from baseline ([1]; 100 mg bid, day 7, 100 mm VAS): −19.2 (21.6)* mm
- VAS pain, change from baseline ([1]; 100 mg bid, day 14, 100 mm VAS): −21.2 (22.6)* mm
- VAS pain, change from baseline ([1]; 100 mg bid, day 28, 100 mm VAS): −26.3 mm
- VAS pain, change from baseline ([1]; 200 mg bid, day 7, 100 mm VAS): −22.0 (20.8)* mm
- VAS pain, change from baseline ([1]; 200 mg bid, day 14, 100 mm VAS): −24.1 (22.8)* mm
- VAS pain, change from baseline ([1]; 200 mg bid, day 28, 100 mm VAS): −29.6 mm
- Pain relief of 400 mg once daily compared with 200 mg twice daily ([1]; 400 mg once daily): the same or better pain relief as 200 mg twice daily
- Mean VAS scores compared with the other dose groups ([1]; 400 mg once daily, day 28, throughout the measurement period): best mean scores
- VAS pain, change from baseline ([1]; 400 mg qd, day 7, 100 mm VAS): −26.0 (22.4)*a, b mm
- VAS pain, change from baseline ([1]; 400 mg qd, day 14, 100 mm VAS): −27.5 (23.8)* mm
- VAS pain, change from baseline ([1]; 400 mg qd, day 28, 100 mm VAS): −33.2 mm
- Duration of effective anti-inflammatory treatment after a single oral dose ([1]; about 200 to about 1200 mg per day, immediate-release formulation, humans): 24 h

Compound: O=C(O)Cc1ccccc1Nc1c(Cl)cccc1Cl [diclofenac, reference compound]
- VAS pain, change from baseline ([1]; 75 mg twice a day, extended release tablet, day 7, 100 mm VAS): −27.9 mm
- VAS pain, change from baseline ([1]; 75 mg twice a day, extended release tablet, day 14, 100 mm VAS): −30.4 (23.0)* mm
- VAS pain, change from baseline ([1]; 75 mg twice a day, extended release tablet, day 28, 100 mm VAS): −31.8 mm
